Laboratory results taken from PMC4858680, “A platinum-based hybrid drug design approach to circumvent acquired resistance to molecular targeted tyrosine kinase inhibitors” (Scientific Reports, 2016).
Read-outs that look alike come from different tables or passages of the source. Each block holds one molecule with its values, some of them ahead of it.

Columns and labels:
H292 = assay: Anticancer activity (cytotoxicity) in NSCLC cell line; format: cell-based; settings: NSCLC; EGFR wild type; read-out: Anticancer activity (IC50) H292
HEK293 Mock transfected = assay: Anticancer activity in mock transfected HEK293; format: cell-based; settings: Bcr-Abl negative
K562 Ima1.0 = assay: Anticancer activity in imatinib-selected resistant K562 subline; format: cell-based; settings: for IC50: read-out: Anticancer activity (IC50) K562 Imatinib selected (K562 Ima1.0), Bcr-Abl amplification
[1] = Chemical stability of the hybrid compounds; settings: for chemical stability in culture medium: Dulbecco’s Modified Eagle Medium supplemented with 5 mM glutathione
K562 = assay: Anticancer activity (cytotoxicity) in CML cell line; format: cell-based
P-gp (MDCKII–P-gp) = P-gp (MDCKII–P-gp) (Homo sapiens, UniProt P08183); settings: 10 μM, mean of three experiments
Chain of P-gp (MDCKII–P-gp) (P08183 whole entry): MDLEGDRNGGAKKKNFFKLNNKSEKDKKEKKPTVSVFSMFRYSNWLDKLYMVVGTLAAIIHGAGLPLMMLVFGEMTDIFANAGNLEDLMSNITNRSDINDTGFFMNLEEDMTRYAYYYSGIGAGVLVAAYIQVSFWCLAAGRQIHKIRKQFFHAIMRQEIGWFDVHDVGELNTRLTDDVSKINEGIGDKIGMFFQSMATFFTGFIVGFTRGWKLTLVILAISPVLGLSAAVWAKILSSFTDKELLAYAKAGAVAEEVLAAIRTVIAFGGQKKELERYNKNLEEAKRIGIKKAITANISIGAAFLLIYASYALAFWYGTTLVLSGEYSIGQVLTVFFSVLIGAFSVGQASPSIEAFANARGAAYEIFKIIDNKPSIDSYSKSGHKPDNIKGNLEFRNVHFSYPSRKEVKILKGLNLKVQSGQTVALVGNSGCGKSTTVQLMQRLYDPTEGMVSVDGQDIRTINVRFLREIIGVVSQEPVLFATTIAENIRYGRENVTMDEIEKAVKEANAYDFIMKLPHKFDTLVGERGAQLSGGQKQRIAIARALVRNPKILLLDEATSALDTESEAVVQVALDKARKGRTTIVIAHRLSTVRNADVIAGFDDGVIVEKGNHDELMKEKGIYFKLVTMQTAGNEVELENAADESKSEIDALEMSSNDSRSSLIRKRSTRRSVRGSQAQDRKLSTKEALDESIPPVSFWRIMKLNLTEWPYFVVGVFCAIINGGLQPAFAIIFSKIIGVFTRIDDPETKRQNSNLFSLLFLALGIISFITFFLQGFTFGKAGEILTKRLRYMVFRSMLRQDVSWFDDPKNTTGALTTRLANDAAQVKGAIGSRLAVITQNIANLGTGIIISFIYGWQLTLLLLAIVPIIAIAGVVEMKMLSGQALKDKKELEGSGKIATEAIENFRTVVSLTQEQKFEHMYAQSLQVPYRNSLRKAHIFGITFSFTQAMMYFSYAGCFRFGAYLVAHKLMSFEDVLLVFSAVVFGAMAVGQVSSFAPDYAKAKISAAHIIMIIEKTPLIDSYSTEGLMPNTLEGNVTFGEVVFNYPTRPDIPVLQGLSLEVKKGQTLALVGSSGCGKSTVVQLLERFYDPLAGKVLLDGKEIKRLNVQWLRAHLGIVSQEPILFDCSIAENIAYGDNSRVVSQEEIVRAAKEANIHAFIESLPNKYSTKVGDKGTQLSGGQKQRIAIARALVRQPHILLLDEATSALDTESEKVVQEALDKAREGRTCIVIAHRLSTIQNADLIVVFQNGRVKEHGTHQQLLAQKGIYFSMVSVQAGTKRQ

HCC827 = assay: Anticancer activity (cytotoxicity) in NSCLC cell line; format: cell-based; settings: EGFR ΔE746-A750 (sensitizing)
H1975 = assay: as above; format: cell-based; settings: H1975 versus HCC827
RPMI8226 = assay: Anticancer activity (cytotoxicity) in Bcr-Abl negative cell line; format: cell-based
HEK293 Bcr-Abl wild type = assay: Anticancer activity in HEK293 stably transfected with wild type Bcr-Abl; format: cell-based
HEK293 Bcr-Abl E255K = assay: Anticancer activity in HEK293 stably transfected with Bcr-Abl E255K; format: cell-based; settings: for IC50: stably transfected
ABCG2 = molecular target: T1, ABCG2 (Homo sapiens, UniProt Q9UNQ0, R482G); assay: 5D3 shift assay; format: cell-based; settings: ABCG2-overexpressing S1M1-80 cells; flow cytometry
T1 construct: endogenous in cells; host or cells: S1M1-80
T1 sequence (Q9UNQ0 whole entry R482G): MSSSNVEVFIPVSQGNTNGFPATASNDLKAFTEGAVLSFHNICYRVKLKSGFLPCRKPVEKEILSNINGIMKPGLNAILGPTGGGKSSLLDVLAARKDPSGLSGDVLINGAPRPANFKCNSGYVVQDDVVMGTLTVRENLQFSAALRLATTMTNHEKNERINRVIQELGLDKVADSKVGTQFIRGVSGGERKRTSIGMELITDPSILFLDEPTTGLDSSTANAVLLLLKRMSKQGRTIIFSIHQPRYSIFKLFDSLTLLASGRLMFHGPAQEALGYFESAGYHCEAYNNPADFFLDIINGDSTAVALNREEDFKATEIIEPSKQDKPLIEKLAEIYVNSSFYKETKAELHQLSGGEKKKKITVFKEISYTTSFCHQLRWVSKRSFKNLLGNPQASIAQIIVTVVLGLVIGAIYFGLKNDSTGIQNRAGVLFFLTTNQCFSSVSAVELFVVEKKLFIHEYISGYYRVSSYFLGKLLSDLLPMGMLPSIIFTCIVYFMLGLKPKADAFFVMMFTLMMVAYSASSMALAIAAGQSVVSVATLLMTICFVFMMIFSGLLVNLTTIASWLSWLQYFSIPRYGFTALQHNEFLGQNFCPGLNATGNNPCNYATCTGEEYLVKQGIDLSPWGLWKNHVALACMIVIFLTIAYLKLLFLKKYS

P-gp = P-gp (Homo sapiens, UniProt P08183); assay: UIC2 shift assay; format: cell-based; design: endogenous in cells; host or cells: SW620 Ad300; settings: P-gp overexpressing SW620 Ad300 cells; flow cytometry
Chain of P-gp (P08183 whole entry): as the sequence (P08183 whole entry) above

p38 = assay: Western blot analysis of p38 phosphorylation; format: cell-based
[2] = CML cell line, Bcr-Abl positive, Table 1, read-out: Anticancer activity (IC50) K562
[3] = Table 2, read-out: Anticancer activity (IC50) K562 Sensitive parental

SMILES: COc1cc2c(Nc3ccc(Br)cc3F)[n+]([Pt@SP2-2]([NH2])([NH3+])[Cl])cnc2cc1OCC1CCN(C)CC1 [3a, cisplatin-vandetanib]
IC50 (H292): 26.4 ± 3.19 µM

SMILES: Cc1ccc(NC(=O)c2ccc(CN3CCN(C)CC3)cc2)cc1Nc1nccc(-c2cccnc2)[n+]1[Pt@SP3-2]([NH3+])([NH3+])[Cl] [1c, transplatin-imatinib]
IC50 (HEK293 Mock transfected): 10.1 ± 1.39 µM
IC50 (K562 Ima1.0): 1.05 ± 0.14 µM
activation of downstream ERK1/2 (Western blot) (ERK1/2 in K562 Ima1.0): able to inhibit the activation
chemical stability in culture medium [1]: undergo gradual degradation to release the original TKI
IC50 (K562; [2]): 1.04 ± 0.01 µM
IC50 (K562; [3]): 1.04 ± 0.01 µM
DNA damage marker (phosphor-γ-H2Ax) (Western blot) (phosphor-γ-H2Ax): concentration dependent upregulation

A to B transport (apparent permeability) (P-gp (MDCKII–P-gp)): 3.57 × 10^−6
B to A transport (apparent permeability) (P-gp (MDCKII–P-gp)): 3.40 × 10^−6
SMILES: C#Cc1cccc(Nc2c3cc(OCCOC)c(OCCOC)cc3nc[n+]2[Pt@SP3-2]([NH3+])([NH3+])[Cl])c1 [2c, transplatin-erlotinib]
chemical stability in culture medium [1]: undergo gradual degradation to release the original TKI

SMILES: C#Cc1cccc(Nc2c3cc(OCCOC)c(OCCOC)cc3nc[n+]2[Pt-2]2([Cl])[NH2+]C3CCCCC3[NH2+]2)c1 (stereo not drawn) [2b, oxaliplatin-erlotinib]
IC50 (H292): 1.33 ± 0.39 µM
A to B transport (apparent permeability) (P-gp (MDCKII–P-gp)): 6.59 × 10^−6
chemical stability in all conditions tested ([1]; saline, phosphate buffered solution (pH 4 and 7.4), culture medium with 5 mM glutathione): stable

SMILES: O=C1[O][Pt]2([NH][C@@H]3CCCC[C@H]3[NH]2)[O]C1=O [Oxaliplatin]
IC50 (H292): 3.77 ± 0.35 µM
IC50 (HCC827): 3.6 ± 1.76 µM
Fold resistance (IC50 in H1975/IC50 in HCC827) (H1975): 1.4
IC50 (HEK293 Mock transfected): 2.41 ± 0.32 µM
IC50 (K562 Ima1.0): 16.4 ± 1.14 µM
Fold resistance K562 Ima1.0 (K562 Ima1.0; versus sensitive parental K562): 1.0
IC50 (RPMI8226): 0.43 ± 0.04 µM
IC50 (HEK293 Bcr-Abl wild type): 3.15 ± 0.87 µM
IC50 (K562; [2]): 16.6 ± 2.08 µM
IC50 (K562; [3]): 16.6 ± 2.08 µM
IC50 (HEK293 Bcr-Abl E255K): 2.65 ± 0.71 µM
Fold resistance HEK293 Bcr-Abl E255K (HEK293 Bcr-Abl E255K; versus HEK293 Bcr-Abl wild type): 0.8

5D3 shift (interaction with ABCG2) (ABCG2): concentration dependent antibody shift
SMILES: O=c1c(O)c(-c2ccc(O)c(O)c2)oc2cc(O)cc(O)c12 [quercetin]

UIC2 shift (interaction with P-gp) (P-gp): concentration dependent antibody shift
SMILES: C=C[C@H]1C[N@@]2CC[C@H]1C[C@H]2[C@H](O)c1ccnc2ccc(OC)cc12 [quinine]

SMILES: COc1cc2c(Nc3ccc(Br)cc3F)[n+]([Pt@SP3-2]([NH2])([NH3+])[Cl])cnc2cc1OCC1CCN(C)CC1 [3c, transplatin-vandetanib]
IC50 (H292): 18.4 ± 4.48 µM

SMILES: N.N.[Cl][Pt][Cl] [Cisplatin]
IC50 (H292): 2.12 ± 0.87 µM
p38 phosphorylation (Western blot) (p38): induce p38 phosphorylation
IC50 (HCC827): 6.65 ± 1.66 µM
IC50 (HEK293 Mock transfected): 5.43 ± 0.72 µM
IC50 (K562 Ima1.0): 17.5 ± 1.06 µM
IC50 (RPMI8226): 2.97 ± 0.82 µM
IC50 (HEK293 Bcr-Abl wild type): 8.16 ± 1.01 µM
IC50 (K562; [2]): 19.8 ± 1.42 µM
IC50 (K562; [3]): 19.8 ± 1.42 µM
IC50 (HEK293 Bcr-Abl E255K): 6.54 ± 0.49 µM
